Results on twelve compounds are retold here after paper PMC9833666, “Designing and identifying β-hairpin peptide macrocycles with antibiotic potential” (Science Advances, 2023).

Test [1] relates to Acinetobacter baumannii AB5075. The conditions noted are these: AB5075. On the procedure: MICs were performed by a modifiedClinical and Laboratory Standards Institute) procedure. […] Separately, E. coli W3110 or A. baumannii AB5075 was grown overnight in 5 ml of standard MH at 37°C. Cells from these cultures were diluted to a concentration of 5 × 10^5 to 6 × 10^5 cells/ml in either standard MH, MHII, RPMI, or fetal bovine serum, and 90 μl was added to each well of the 96-well plate containing diluted peptide. Plates were wrapped twice in parafilm and incubated at 37°C for 18 to 24 hours. Wells were examined by eye against wells with no bacteria for signs of growth. MICs were reported as the minimum concentration with no observable growth. In cases where triplicate samples differed, the concentration supported by the median of the three replicates was reported. […]
For consistency, all SynCH peptides were resuspended at 10 mg/ml in water. Peptides were then visually inspected for any lack of solubility (Data File S1). […]
We had this library commercially synthesized and tested its ability to inhibit the growth of Acinetobacter baumannii AB5075, a clinically isolated Carbapenem Resistant Acinetobacter (CRA) pathogen. MICs were performed in MH as well as 100% FBS, which is likely more representative of the in vivo environment. […]

Test [2] concerns Escherichia coli W3110. The class given is cell-based. Conditions: for Ec W3110 MIC MH: E. coli W3110, MH medium; for Ec W3110 MIC RPMI: E. coli W3110, RPMI medium.

Each structure is given as a SMILES string. Bridge positions count the residues as written; N and C are the ends. Peptide text beside a SMILES is read from it.

`CC(C)C[C@@H]1NC(=O)[C@H](CO)NC(=O)[C@H](C(C)C)NC(=O)[C@H](CCCCN)NC(=O)[C@H](CCCNC(=N)N)NC(=O)CNC(=O)[C@H](CCCNC(=N)N)NC(=O)[C@H](CCCNC(=N)N)NC(=O)[C@H](CC(N)=O)NC(=O)[C@H](CC(C)C)NC(=O)[C@H](CCCNC(=N)N)NC(=O)[C@H](C(C)C)NC(=O)[C@H](CCCNC(=N)N)NC(=O)[C@@H](N)CSSC[C@@H](C(=O)O)NC(=O)[C@H](CCC(N)=O)NC1=O` [SySA-5.23] (H-CRVRLNRRGRKVSLQC-OH; disulfide 1-16): in test [1], the “AB5075 MIC FBS” value was greater than 128 µg/mL and the “AB5075 MIC MH” value was 8 µg/mL.

With `CC(C)C[C@@H]1NC(=O)[C@H](CO)NC(=O)[C@H](C(C)C)NC(=O)[C@H](CCCCN)NC(=O)[C@H](CCCNC(=N)N)NC(=O)CNC(=O)[C@H](CCCNC(=N)N)NC(=O)[C@H](CCCNC(=N)N)NC(=O)[C@H](CC(N)=O)NC(=O)[C@H](CC(C)C)NC(=O)[C@H](CCCNC(=N)N)NC(=O)[C@H](C(C)C)NC(=O)[C@H](CCCNC(=N)N)NC(=O)[C@H](CC(C)C)NC(=O)[C@@H](N)CSSC[C@@H](C(=O)O)NC(=O)[C@H](C(C)C)NC(=O)[C@H](CCC(N)=O)NC1=O` [SySA-5.10] (H-CLRVRLNRRGRKVSLQVC-OH; disulfide 1-18), in test [1], the “AB5075 MIC FBS” value is 128 µg/mL and the “AB5075 MIC MH” value worked out at 4 µg/mL.

With `CC(C)C[C@@H]1NC(=O)[C@H](CCCNC(=N)N)NC(=O)[C@H](C(C)C)NC(=O)[C@H](CCCCN)NC(=O)[C@H](CCCNC(=N)N)NC(=O)CNC(=O)[C@H](CCCNC(=N)N)NC(=O)[C@H](CCCNC(=N)N)NC(=O)[C@H](CCCNC(=N)N)NC(=O)[C@H](CC(C)C)NC(=O)[C@H](CCCNC(=N)N)NC(=O)[C@H](C(C)C)NC(=O)[C@H](CCCNC(=N)N)NC(=O)[C@H](CC(C)C)NC(=O)[C@@H](N)CSSC[C@@H](C(=O)O)NC(=O)[C@H](C(C)C)NC(=O)[C@H](CCC(N)=O)NC1=O` [SySA-5.11] (H-CLRVRLRRRGRKVRLQVC-OH; disulfide 1-18), in test [1], the “AB5075 MIC FBS” value amounted to 64 µg/mL and the “AB5075 MIC MH” value worked out at 4 µg/mL.

`CC(C)C[C@@H]1NC(=O)[C@H](CCCNC(=N)N)NC(=O)[C@H](C(C)C)NC(=O)[C@H](CCCCN)NC(=O)[C@H](CCCNC(=N)N)NC(=O)[C@H](CCCNC(=N)N)NC(=O)[C@H](CCCNC(=N)N)NC(=O)[C@H](CCCNC(=N)N)NC(=O)[C@H](CC(C)C)NC(=O)[C@H](CCCNC(=N)N)NC(=O)[C@H](C(C)C)NC(=O)[C@H](CCCNC(=N)N)NC(=O)[C@H](CC(C)C)NC(=O)[C@@H](N)CSSC[C@@H](C(=O)O)NC(=O)[C@H](C(C)C)NC(=O)[C@H](CCCNC(=N)N)NC1=O` [SySA-5.20] (H-CLRVRLRRRRKVRLRVC-OH; disulfide 1-17): in test [1], the “AB5075 MIC FBS” value was 128 µg/mL and the “AB5075 MIC MH” value was 4 µg/mL.

With `CC(C)C[C@@H]1NC(=O)[C@H](CCCNC(=N)N)NC(=O)[C@H](C(C)C)NC(=O)[C@H](CCCCN)NC(=O)[C@H](C(C)C)NC(=O)[C@H](CCCNC(=N)N)NC(=O)[C@H](CCCNC(=N)N)NC(=O)[C@H](CCCNC(=N)N)NC(=O)[C@H](CCCNC(=N)N)NC(=O)[C@H](CC(N)=O)NC(=O)[C@H](CCCNC(=N)N)NC(=O)[C@H](CC(C)C)NC(=O)[C@H](CCCNC(=N)N)NC(=O)[C@H](C(C)C)NC(=O)[C@H](CCCNC(=N)N)NC(=O)[C@@H](N)CSSC[C@@H](C(=O)O)NC(=O)[C@H](CCCNC(=N)N)NC1=O` [SySA-5.7] (H-CRVRLRNRRRRVKVRLRC-OH; disulfide 1-18), in test [1], the “AB5075 MIC FBS” value was greater than 128 µg/mL and the “AB5075 MIC MH” value was found to be 8 µg/mL.

As for `CC(C)C[C@@H]1NC(=O)[C@H](CCCNC(=N)N)NC(=O)[C@H](C(C)C)NC(=O)[C@H](CCCNC(=N)N)NC(=O)[C@H](CC(C)C)NC(=O)[C@@H](N)CSSC[C@@H](C(=O)O)NC(=O)[C@H](C(C)C)NC(=O)[C@H](CCCNC(=N)N)NC(=O)[C@H](CC(C)C)NC(=O)[C@H](CCCNC(=N)N)NC(=O)[C@H](C(C)C)NC(=O)[C@H](CCCCN)NC(=O)[C@H](C(C)C)NC(=O)[C@H](CCCNC(=N)N)NC(=O)[C@H](CCCNC(=N)N)NC(=O)[C@H](CCCNC(=N)N)NC(=O)[C@H](CCCNC(=N)N)NC(=O)[C@H](CC(N)=O)NC(=O)[C@H](CCCNC(=N)N)NC1=O` [SySA-5.2] (H-CLRVRLRNRRRRVKVRLRVC-OH; disulfide 1-20), in test [1], the “AB5075 MIC FBS” value was greater than 128 µg/mL and the “AB5075 MIC MH” value was determined as 4 µg/mL.

In the case of `CC[C@H](C)[C@@H]1NC(=O)[C@H](CCCCN)NC(=O)[C@H](CC(C)C)NC(=O)CNC(=O)[C@H](CCCNC(=N)N)NC(=O)[C@H](CCCNC(=N)N)NC(=O)[C@H](CCCNC(=N)N)NC(=O)[C@H](CC(N)=O)NC(=O)[C@H](CC(N)=O)NC(=O)[C@H](CC(C)C)NC(=O)[C@H](CCCNC(=N)N)NC(=O)[C@H]([C@@H](C)CC)NC(=O)[C@H](CCCNC(=N)N)NC(=O)[C@H](C(C)C)NC(=O)[C@@H](N)CSSC[C@@H](C(=O)O)NC(=O)[C@H](C(C)C)NC(=O)[C@H](CCC(N)=O)NC(=O)[C@H](CC(C)C)NC(=O)[C@H](CO)NC1=O` [SySA-82] (H-CVRIRLNNRRRGLKISLQVC-OH; disulfide 1-20; N-terminus and C-terminus assumed), in test [2], the Ec W3110 MIC MH worked out at 64 µg/mL, the Ec W3110 MIC RPMI amounted to 8 µg/mL, the “W3110 MIC MH” value was determined as 64 µg/mL and the “W3110 MIC RPMI” value came out at 8 µg/mL.

In the case of `CC[C@H](C)[C@@H]1NC(=O)[C@H](CC(N)=O)NC(=O)[C@H](C(C)C)NC(=O)[C@H](CCCCN)NC(=O)[C@H]([C@@H](C)CC)NC(=O)[C@H](CCCNC(=N)N)NC(=O)[C@@H](N)CSSC[C@@H](C(=O)O)NC(=O)[C@H](CCC(N)=O)NC(=O)[C@H](CC(C)C)NC(=O)[C@H](CCC(N)=O)NC(=O)[C@H](CC(C)C)NC(=O)[C@H](CCCCN)NC(=O)[C@H](C(C)C)NC(=O)[C@H](CCCNC(=N)N)NC(=O)[C@H](CCCNC(=N)N)NC(=O)[C@H](CCCNC(=N)N)NC(=O)CNC(=O)[C@H](CC(N)=O)NC(=O)[C@H](CC(N)=O)NC1=O` [SySA-34] (H-CRIKVNINNGRRRVKLQLQC-OH; disulfide 1-20; N-terminus and C-terminus assumed), in test [2], the Ec W3110 MIC MH is 128 µg/mL, the Ec W3110 MIC RPMI worked out at 32 µg/mL, the “W3110 MIC MH” value came out at 128 µg/mL and the “W3110 MIC RPMI” value is 32 µg/mL.

Turning to `CC[C@H](C)[C@@H]1NC(=O)[C@H](CCCCN)NC(=O)[C@H](CC(C)C)NC(=O)[C@H](CCCNC(=N)N)NC(=O)[C@H](CCCNC(=N)N)NC(=O)[C@H](CCCNC(=N)N)NC(=O)[C@H](CCCNC(=N)N)NC(=O)[C@H](CC(N)=O)NC(=O)[C@H](CC(N)=O)NC(=O)[C@H](CC(C)C)NC(=O)[C@H](CCCNC(=N)N)NC(=O)[C@H](C(C)C)NC(=O)[C@H](CCCNC(=N)N)NC(=O)[C@H](C(C)C)NC(=O)[C@@H](N)CSSC[C@@H](C(=O)O)NC(=O)[C@H](C(C)C)NC(=O)[C@H](CCC(=O)O)NC(=O)[C@H](CC(C)C)NC(=O)[C@H](CO)NC1=O` [SySA-78] (H-CVRVRLNNRRRRLKISLEVC-OH; disulfide 1-20; N-terminus and C-terminus assumed), in test [2], the Ec W3110 MIC MH was 32 µg/mL, the Ec W3110 MIC RPMI amounted to 16 µg/mL, the “W3110 MIC MH” value was determined as 32 µg/mL and the “W3110 MIC RPMI” value came out at 16 µg/mL.

`CC[C@H](C)[C@@H]1NC(=O)[C@H](CC(=O)O)NC(=O)[C@H]([C@@H](C)CC)NC(=O)[C@H](CCCNC(=N)N)NC(=O)[C@H](C(C)C)NC(=O)[C@H](CCCNC(=N)N)NC(=O)[C@@H](N)CSSC[C@@H](C(=O)O)NC(=O)[C@H](CCC(N)=O)NC(=O)[C@H](CC(C)C)NC(=O)[C@H](CCC(N)=O)NC(=O)[C@H](CC(C)C)NC(=O)[C@H](CCCCN)NC(=O)[C@H](CC(C)C)NC(=O)[C@H](CCCNC(=N)N)NC(=O)[C@H](CCCNC(=N)N)NC(=O)[C@H](CCCNC(=N)N)NC(=O)CNC(=O)[C@H](CC(N)=O)NC(=O)[C@H](CC(N)=O)NC1=O` [SyRC-5] (H-CRVRIDINNGRRRLKLQLQC-OH; disulfide 1-20): in test [2], the “W3110 MIC” value was greater than 256 µg/mL.

`CC[C@H](C)[C@@H]1NC(=O)[C@H](CCCNC(=N)N)NC(=O)[C@H](C(C)C)NC(=O)[C@H](CCCNC(=N)N)NC(=O)[C@@H](N)CSSC[C@@H](C(=O)O)NC(=O)[C@H](CCC(=O)O)NC(=O)[C@H](C(C)C)NC(=O)[C@H](CCC(N)=O)NC(=O)[C@H](CC(C)C)NC(=O)[C@H](CCCCN)NC(=O)[C@H](CC(C)C)NC(=O)[C@H](CCCNC(=N)N)NC(=O)CNC(=O)[C@H](CO)NC(=O)[C@H](CCCNC(=N)N)NC(=O)[C@H](CC(N)=O)NC(=O)[C@H](CC(N)=O)NC(=O)[C@H](C(C)C)NC(=O)[C@H](CC(N)=O)NC1=O` [SyRC-14] (H-CRVRINVNNRSGRLKLQVEC-OH; disulfide 1-20): in test [2], the “W3110 MIC” value is greater than 256 µg/mL.

Regarding `CC[C@H](C)[C@@H]1NC(=O)[C@H](CC(N)=O)NC(=O)[C@H]([C@@H](C)CC)NC(=O)[C@H](CCCCN)NC(=O)[C@H](C(C)C)NC(=O)[C@H](CCCNC(=N)N)NC(=O)[C@@H](N)CSSC[C@@H](C(=O)O)NC(=O)[C@H](CCC(=O)O)NC(=O)[C@H](C(C)C)NC(=O)[C@H](CCC(=O)O)NC(=O)[C@H](CC(C)C)NC(=O)[C@H](CCCNC(=N)N)NC(=O)[C@H](C(C)C)NC(=O)[C@H](CCCNC(=N)N)NC(=O)[C@H](CCCNC(=N)N)NC(=O)[C@H](CO)NC(=O)CNC(=O)[C@H](CC(N)=O)NC(=O)[C@H](CC(=O)O)NC1=O` [SyRC-2] (H-CRVKINIDNGSRRVRLEVEC-OH; disulfide 1-20), the “W3110 MIC” value in test [2] was greater than 256 µg/mL.
